# Measured values published in US20190008870A1, “COMPOSITIONS AND METHODS FOR LIPID METABOLISM DISORDER” (JANSFAT BIOTECHNOLOGY CO., LTD., priority 2016, published 2019).
# Assays:
# PKA/PKG = assay: Hepatic PKA/PKG expression in HFD mice; format: in vivo; conditions: Control printed 550%
# PKA = PKA expression/immunoreactivity in HepG2 cells; format: cell-based
# Method: HepG2 cells were treated with various concentrations of targeted drugs for 24 hours. Reactions were terminated by washing twice with cold PBS, and the cells were then harvested. Proteins in the whole-cell lysate were homogenized in an ice-cold lysis buffer and a protease inhibitor (Sigma-Aldrich, St. Louis, Mo., U.S.A.). The homogenate was centrifuged at 90,000×g for 15 minutes at 4° C., and supernatant was recovered as the total cellular protein. Cytosolic and membrane fractions of HepG2 cells were prepared using a CNM (Cytosol Nuclear Membrane) compartmental protein extraction kit (BioChain Institute Inc., Hayward, Calif., U.S.A.) according to the manufacturer's instructions. All of the fractionated protein solutions were stored at −80° C. until analysis. To measure the expression levels of proteins by drugs, the total cell protein was extracted after incubation with treatments for 24 hours and then Western blotting analysis was performed as described previously.
# (§1) To determine that KMUP-1 or targeted drugs can affect PKA, we incubated KMUP-1 (10^−4, 10^−5, 10^−6 M) or targeted drugs with HepG2 cells for 24 hours to measure the protein expressions of PKA/PKG by Western blotting or PKA/PKG and HSL immunoreactivities by fluorescence staining, combined with image scanning in the absence or presence of oxidized LDL (200 μg/mL).
# [1] = Body weight and food intake of mice fed with HFD; format: in vivo
# Method: In the experiment, C57BL/6J male mice (21-22 g), after fasting, were fed an HFD as a model of hyperlipidemia for 8 weeks. During the 2 month experiments, mice fasted for one night before the experiment was changed from a standard diet (STD) to an HFD and then the mice were randomly divided into 13 groups, including a protection group, 2 control and 10 treatment groups. Six mice were used in each group. […] Liver from the protection group supplemented with KMUP-1 HCl (1 mg/kg/day) were used to determine the HMG CoA reductase expression. Each group of mice had free access to drinking water from week 1 to week 14. Tap water was used to normalize mineral nutrition.
# Within 2 months, the 3 day food intake average for each animal was measured. The weight gain and plasma lipid levels of each group were determined and compared to the non-treatment control group. Mouse blood was collected during the daytime by cardiac puncture followed by centrifugation at 90×g (Benchtop Centrifuge, U.S.A.) to separate the serum, and frozen at −80° C., for biochemical analysis using a Hitachi Clinical Analyzer 7070 (Hitachi High-Technologies Co. Tokyo, Japan). Agents used in the assays were obtained from Merck & Co. (Kenilworth, N.J., U.S.A.). Triglyceride (TG), total cholesterol, HDL cholesterol and LDL cholesterol in mouse serum were measured by methods used in the clinic. To measure the hepatic Triglyceride, isolated liver were cut into small chips.
# eNOS = assay: IHC staining of eNOS in epididymal fat pads; format: in vivo, mice; conditions: HFD 14 weeks, KMUP-1 2.5 mg/kg/day, Control 50.5
# Method: (§2) For IHC of MMP-9/TNFα, HSL/p-HSL/ATGL and eNOS/IL-10, antigen retrieval of de-paraffinated sections was performed in Dako target retrieval solution, pH 9.0, in a vegetable steamer followed by the quenching of endogenous peroxidase activity with 3.0% H2O2 in methanol. Sections were then incubated with specific primary antibodies overnight at 4° C. in a humidified chamber. The antibodies used included rabbit polyclonal anti-eNOS (1:50 dilution) (Abcam, Cambridge, UK) or rabbit monoclonal anti-cleaved caspase-3 (1:50 dilution) (Cell Signaling, U.S.A.). The sections were then examined using a DAKO REAL EnVision™ Detection System kit (DAKO, Carpinteria, Calif., U.S.A.) and counterstained with hematoxylin. Images were obtained through a Nikon Eclipse TE200-S microscope.
# HSL [2] = assay: HSL immunoreactivity in HepG2 cells; format: cell-based; conditions: 24 hours
# Method: as §1
# ApoA-I = ApoA-I expression in HepG2 cells; format: cell-based; conditions: 10^−9-10^−5 M
# Method: The HepG2 hepatoma cell line was purchased from the American Type Culture Collection (ATCC, Manassas, Va., U.S.A.). Cells were cultured in Dulbecco's Modified Eagle's Medium (DMEM). The culture media was supplemented with 5% heat-inactivated FBS, penicillin (100 U/mL) and streptomycin (100 μg/mL). Cells were grown in a humidified atmosphere containing 5% CO2 at 37° C., in which the oxygen tension in the incubator was held at 140 mmHg (20% O2, v/v; normoxic conditions). […] Then the targeted drugs solution was incubated with the cells for 24 hours, followed by protein extraction. The targeted drugs were added to the […].
# HepG2 cells were treated with various concentrations of targeted drugs for 24 hours. Reactions were terminated by washing twice with cold PBS, and the cells were then harvested. Proteins in the whole-cell lysate were homogenized in an ice-cold lysis buffer and a protease inhibitor (Sigma-Aldrich, St. Louis, Mo., U.S.A.). The homogenate was centrifuged at 90,000×g for 15 minutes at 4° C., and supernatant was recovered as the total cellular protein. […]
# PDE-5A = assay: Expression of PDE-5A (Table 12); conditions: Control group 100 (%)
# LDLRs = assay: Fluorescence staining of LDLRs in HepG2 cells; format: cell-based
# Method: HepG2 cells were used to determine the cellular protein expression of LDLRs in the presence of exogenous LDL (500 μg/mL). […] All images were collected and analyzed by scanning with Nikon Eclipse TE200-S microscope (Tokyo, Japan).
# HSL [3] = assay: IHC staining of HSL in epididymal fat pads; format: in vivo, mice; conditions: HFD 14 weeks, KMUP-1 2.5 mg/kg/day, Control 34
# Method: as §2
# ROCK II = assay: Expression of ROCK II (Table 12); conditions: Control group 100 (%)
structure (smiles),measurement,setting,value
"Cn1c(=O)c2c(ncn2CCN2CCN(c3ccccc3Cl)CC2)n(C)c1=O [KMUP-1, 7-[2-[4-(2-chlorophenyl)piperazinyl]ethyl]-1,3-dimethylxanthine]",PKA/PKG expression,"PKA/PKG; drinking KMUP-1, Protection group",250%
same,PKA/PKG expression,"PKA/PKG; drinking KMUP-1, Treatment group",100%
same,oxLDL-induced reduction of PKA expression,"PKA; HepG2 cells, 1, 10, 100 μM, 200 μg/mL oxLDL",reversed
same,PKA protein expression,"PKA; HepG2 cells, 10, 20, 40 μM, in the presence of LDL (500 μg/mL)",could not significantly affect
same,PKA immunoreactivity (green fluorescence),"PKA; HepG2 cells, 24 hours",increased
same,body-weight gain,"[1]; HFD mice 8 weeks, KMUP-1 HCl 2.5, 5 mg/kg p.o., simvastatin 5 mg/kg p.o., compared to the control HFD group (p<0.05)",reduced
same,final BW (Body weight),"[1]; HFD mice, 2.5 mg/kg p.o.",25.7 ± 0.7 g
same,final BW (Body weight),"[1]; HFD mice, 5 mg/kg p.o.",24.3 ± 0.5 g
same,body weight,"[1]; HFD mice, drinking 2.5 mg/200 ml water, protection and treatment groups",decreased
same,"Immunorespons percentages, eNOS",eNOS,39%
same,HSL immunoreactivity (green fluorescence),HSL [2],increased
same,ApoA-I expression,ApoA-I,concentration-dependently increased
same,PDE-5A expression,PDE-5A,64.5 ± 4.5%
same,LDLR (green fluorescence) expression,"LDLRs; 24 hours, KMUP-1 10^−6, 10^−5, 10^−4 M, simvastatin 10^−5 M",increased
same,LDLR fluorescence at high concentration,"LDLRs; concentrations >10^−4 M, near the viability range",decline in fluoresence
same,"Immunorespons percentages, HSL",HSL [3],57%
same,ROCK II expression,ROCK II,42.5 ± 6.3%
